The text below walks through data of US4749701A, “Aminostyryl compound, leukotriene antagonistic composition containing the same as effective ingredients and method of antagonizing SRS by employing the same” (Mitsubishi Chemical Industries Limited, priority 1986, dated 1988).

The data set is described as follows: Acute toxicity test. Conditions: mouse, in vivo. As for the experimental part:
With 4 to 5 ddy-strain male mice of 6 weeks old as one group, the compound of the present invention was orally administered as a suspension in 1% tragacanth solution, and observation was conducted for 7 days and the number of dead mice was examined to obtain the results shown in Table 3.

Where a name gives a salt, the structure may show the parent alone.

With `O=C(O)CCC(=O)Nc1cccc(/C=C/c2ccc3ccccc3n2)c1` [compound 32, 2-[trans-3-(3-carboxypropanamide)styryl]quinoline.sodium salt], the LD50 at 168 h (po) was > 1000 mg/kg.
`O=C(O)C=CC(=O)Nc1cccc(C=Cc2ccc3ccccc3n2)c1` [compound 45]: where the note is “oral, suspension in 1% tragacanth, male ddy mice, 6 weeks old, observed for 7 days”, the LD50 at 168 h is > 1000 mg/kg.

By LD50 is commonly meant the dose at which mortality reaches 50%. Higher therefore signals lower toxicity.
